# Experimental data taken from patent US7547804B2, “Compounds, compositions, and methods employing same” (Myriad Genetics, Inc., priority 2002, dated 2009).
# Tested on: LNCaP cell lines
# Test: WST-1 Cell Proliferation and Viability Assay
# Type: cell-based
# Conditions: Homo sapiens; LNCaP cells, compound incubation 18-72 hours
# Description: WST-1 Cell Proliferation and Viability Assay
# Cell proliferation and cell viability was assessed using the tetrazolium salt WST-1 (Roche Applied Science, Indianapolis Ind.). The assay is based on the cleavage of WST-1 (light red) by mitochondrial dehydrogenase causing the formation of formazan (dark red), which can be measured on an optical density (O.D.) reader. LNCaP cell lines were plated in 96 well tissue culture plates (Corning Costar, N.Y.) at a density of 5000 cells/well in 150 μl complete media phenol-red free (RPMI-1640 [Invitrogen, Carlsbad Calif.] and 10% fetal calf serum). This plate is termed the assay plate. After the cells are plated, they are then incubated overnight at 37 degrees Celsius in a humidified chamber containing 5% CO2 (incubator).
# Compounds are added to the assay plate in 50 μl of complete media and 0.4% DMSO (v:v) making the final DMSO concentration 0.1%. The assay plate is then returned to the incubator for 18-72 hours. WST-1 reagent is then added (20 μl/well) and the plate is placed on an ELISA plate shaker for 30 minutes at room temperature. Plates are then transferred back to the incubator for an additional 3 hours. Plates are then read on a 96 well plate O.D. reader at A490-A650.
row,SMILES,EC50
1,COc1ccccc1CCOc1cccc(NC(=O)c2cccc(C(C)C)c2O)c1 [Compound 203],33 µM
2,Cc1ccc(C(=O)NCc2cccc(-c3ccccc3)c2)c(O)c1 [Compound 205],43 µM
3,Cc1ccc(O)c(C(=O)NCc2cccc(-c3ccccc3)c2)c1 [Compound 206],34 µM
4,COc1ccccc1CCOc1cccc(NC(=O)c2cccc(C)c2O)c1 [Compound 207],33 µM
5,COc1ccccc1CCOc1cccc(NC(=O)c2ccc(C)cc2O)c1 [Compound 208],21 µM
6,COc1ccccc1CCOc1cccc(NC(=O)c2cc(C)ccc2O)c1 [Compound 209],17 µM
7,Cc1cccc(C(=O)Nc2cccc(OCCc3ccccc3)c2)c1O [Compound 210],22 µM
8,Cc1ccc(C(=O)Nc2cccc(OCCc3ccccc3)c2)c(O)c1 [Compound 211],22 µM
9,Cc1ccc(O)c(C(=O)Nc2cccc(OCCc3ccccc3)c2)c1 [Compound 212],20 µM
10,CC(C)(C)c1cc(C(=O)NCc2cccc(-c3ccccc3)c2)c(O)c(C(C)(C)C)c1 [Compound 219],32 µM
11,COc1ccccc1CCOc1cccc(NC(=O)c2cccc(-c3ccccc3)c2O)c1 [Compound 221],17 µM
12,COc1ccccc1CCOc1cccc(NC(=O)c2cc(-c3ccc(F)cc3F)ccc2O)c1 [Compound 223],8 µM
13,O=C(Nc1cccc(OCCc2ccccc2)c1)c1cccc(-c2ccccc2)c1O [Compound 224],22 µM
14,O=C(Nc1cccc(OCCc2ccccc2)c1)c1cc(-c2ccc(F)cc2F)ccc1O [Compound 226],7 µM
15,COc1ccccc1CCOc1cccc(NC(=O)c2cc(-n3cccc3)ccc2O)c1 [Compound 233],10 µM
16,COc1ccccc1CCOc1cccc(NC(=O)c2cc(-c3ccccc3)ccc2O)c1 [Compound 234],10 µM
17,COc1cccc(-c2ccc(O)c(C(=O)Nc3cccc(OCCc4ccccc4OC)c3)c2)c1 [Compound 235],6 µM
18,CCC(C)c1cccc(-c2cccc(CNC(=O)c3cc(Cl)ccc3O)c2)c1 (stereo not drawn) [Compound 236],11 µM
19,Cc1cc(Cl)c(OCCc2ccccc2C(F)(F)F)c(NC(=O)c2cc(Cl)ccc2O)c1C [Compound 240],10 µM
20,CC1CN(c2ccc(NC(=O)c3cc(Cl)ccc3O)c(OCCc3ccccc3C(F)(F)F)c2)CC(C)O1 (stereo not drawn) [Compound 241],3 µM
21,O=C(Nc1cc(Cl)cc(Cl)c1OCCc1cccc(C(F)(F)F)c1)c1cc(Cl)ccc1O [Compound 242],2 µM

row,SMILES,EC50
1,Cc1cc(OCCc2cccc(C(F)(F)F)c2)c(NC(=O)c2cc(Cl)ccc2O)cc1Cl [Compound 243],1 µM
2,O=C(Nc1cc(C(F)(F)F)ccc1OCCc1cccs1)c1cc(Cl)ccc1O [Compound 244],0.9 µM
3,O=C(Nc1cc(C(F)(F)F)ccc1OCCc1ccsc1)c1cc(Cl)ccc1O [Compound 245],0.9 µM
4,CC(C)COc1ccc(Cl)cc1NC(=O)c1cc(Cl)ccc1O [Compound 246],2 µM
5,O=C(Nc1cc(C(F)(F)F)ccc1OCCc1ccccc1Cl)c1cc(Cl)ccc1O [Compound 247],0.9 µM
6,O=C(Nc1cc(C(F)(F)F)ccc1OCCc1cccc(Cl)c1)c1cc(Cl)ccc1O [Compound 248],0.5 µM
7,O=C(Nc1cc(C(F)(F)F)ccc1OCCc1ccc(Cl)c(Cl)c1)c1cc(Cl)ccc1O [Compound 249],0.9 µM
8,O=C(Nc1ccc(Cl)cc1OCCc1ccc(Cl)cc1)c1cc(Cl)ccc1O [Compound 250],2 µM
9,O=C(Nc1cc(C(F)(F)F)cc(Cl)c1OCCc1ccccc1C(F)(F)F)c1cc(Cl)ccc1O [Compound 251],2 µM
10,O=C(Nc1cc(C(F)(F)F)cc(Cl)c1OCCc1cccc(C(F)(F)F)c1)c1cc(Cl)ccc1O [Compound 252],1 µM
11,O=C(Nc1cc(C(F)(F)F)ccc1OCCc1ccc(Cl)cc1Cl)c1cc(Cl)ccc1O [Compound 253],1 µM
12,O=C(Nc1cc(C(F)(F)F)ccc1OCCc1ccc(Cl)s1)c1cc(Cl)ccc1O [Compound 254],1 µM
13,COc1ccc(NC(=O)c2cc(Cl)ccc2O)c(OC)c1 [Compound 256],26 µM
14,O=C(Nc1cc(C(F)(F)F)ccc1SCCc1ccccc1)c1cc(Cl)ccc1O [Compound 259],1 µM
15,O=C(Nc1cc(C(F)(F)F)ccc1SCCc1cccc(C(F)(F)F)c1)c1cc(Cl)ccc1O [Compound 260],1 µM
16,O=CNc1cccc(C(=O)Nc2cc(C(F)(F)F)ccc2OCCc2cccc(C(F)(F)F)c2)c1O [Compound 261],6 µM
17,O=C(Nc1cc(OC(F)(F)F)ccc1OCCc1cccc(C(F)(F)F)c1)c1cc(Cl)ccc1O [Compound 262],0.9 µM
18,O=C(Nc1cc(C(F)(F)F)cc(Cl)c1OCCc1ccc(Cl)cc1)c1cc(Cl)ccc1O [Compound 263],2 µM
19,O=C(Nc1cc(C(F)(F)F)ccc1Oc1ccc(Cl)c2ccccc12)c1cc(Cl)ccc1O [Compound 264],1 µM
20,O=C(Nc1cc(C(F)(F)F)ccc1OCCC1CC1)c1cc(Cl)ccc1O [Compound 265],0.9 µM
21,O=C(Nc1cc(C(F)(F)F)ccc1OCc1ccccc1)c1cc(Cl)ccc1O [Compound 266],0.9 µM

row,SMILES,EC50
1,O=CNc1cccc(C(=O)Nc2cc(C(F)(F)F)ccc2Oc2ccc(Cl)c3ccccc23)c1O [Compound 269],8 µM
2,O=C(Nc1cc(C(F)(F)F)ccc1OCCC(F)(F)F)c1cc(Cl)ccc1O [Compound 271],0.9 µM
3,O=C(Nc1cc(C(F)(F)F)ccc1N1CCN(c2ccccc2)CC1)c1cc(Cl)ccc1O [Compound 272],0.9 µM
4,COc1ccccc1CCNc1ccc(C(F)(F)F)cc1NC(=O)c1cc(Cl)ccc1O [Compound 274],4 µM
5,O=C(Nc1cc(C(F)(F)F)ccc1NCC(c1ccccc1)c1ccccc1)c1cc(Cl)ccc1O [Compound 275],3 µM
6,O=C(Nc1cc(C(F)(F)F)ccc1NCCc1ccccc1Cl)c1cc(Cl)ccc1O [Compound 276],4 µM
7,O=C(Nc1cc(C(F)(F)F)ccc1NCc1cccc2ccccc12)c1cc(Cl)ccc1O [Compound 277],3 µM
8,O=C(Nc1cc(COCc2ccccc2)ccc1Cl)c1cc(Cl)ccc1O [Compound 279],6 µM
9,O=C(Nc1cc(C(F)(F)F)ccc1OC1CCCCC1c1ccccc1)c1cc(Cl)ccc1O (stereo not drawn) [Compound 280],1 µM
10,O=C(Nc1cc(OC2CCCCC2c2ccccc2)ccc1Cl)c1cc(Cl)ccc1O (stereo not drawn) [Compound 281],3 µM
11,O=C(Nc1cccc(OC2CCCCC2c2ccc(Cl)cc2)c1)c1cc(Cl)ccc1O (stereo not drawn) [Compound 282],4 µM
12,CC(C)C(COc1ccc(C(F)(F)F)cc1NC(=O)c1cc(Cl)ccc1O)c1ccc(Cl)cc1 (stereo not drawn) [Compound 283],0.9 µM
13,O=C(Nc1cc(Cl)ccc1OCCc1cccc(OC(F)(F)F)c1)c1cc(Cl)ccc1O [Compound 284],2 µM
14,O=C(Nc1cc(C(F)(F)F)ccc1OCCc1cccc(OC(F)(F)F)c1)c1cc(Cl)ccc1O [Compound 285],0.9 µM
15,CS(=O)(=O)c1ccc(CCOc2ccc(Cl)cc2NC(=O)c2cc(Cl)ccc2O)cc1 [Compound 286],10 µM
16,CS(=O)(=O)c1ccc(CCOc2ccc(C(F)(F)F)cc2NC(=O)c2cc(Cl)ccc2O)cc1 [Compound 287],3.1 µM
17,O=C(Nc1cc(Cl)ccc1OCCC1CC1)c1cc(Cl)ccc1O [Compound 288],3.3 µM
18,O=C(Nc1cc(Cl)ccc1OCc1ccccc1)c1cc(Cl)ccc1O [Compound 289],3.3 µM
19,O=C(Nc1cc(Cl)ccc1OCCc1ccccc1)c1cc(Cl)cc([N+](=O)[O-])c1O [Compound 294],19 µM
20,CCOCCOc1ccc(C(F)(F)F)cc1NC(=O)c1cc(Cl)ccc1O [Compound 295],1 µM
21,CC(C)OCCOc1ccc(C(F)(F)F)cc1NC(=O)c1cc(Cl)ccc1O [Compound 296],0.8 µM

# Same assay, conditions: Homo sapiens; LNCaP cells; flagged "Estimated": based on actual data at different concentrations
row,SMILES,EC50
1,COc1ccc(Cl)cc1C(=O)N(C)c1cccc(OCCc2ccccc2)c1 [Compound 215],45 µM
2,COc1ccccc1CCOc1cccc(N(C)C(=O)c2cc(Cl)ccc2OC)c1 [Compound 216],32 µM
3,O=C(NCc1cccc(-c2ccccc2)c1)c1cccc(-c2ccccc2)c1O [Compound 218],32 µM
4,O=C(NCc1cccc(-c2ccccc2)c1)c1cc(-c2ccc(F)cc2F)ccc1O [Compound 220],20 µM
5,O=C(Nc1cccc(OCCc2ccccc2)c1)c1cccc(O)c1 [Compound 227],22 µM
6,COc1ccccc1CCOc1cccc(N(C)C(=O)c2cc(Cl)ccc2O)c1 [Compound 228],30 µM
7,COc1ccccc1CCOc1cccc(NC(=O)c2cc(Cl)ccc2[N+](=O)[O-])c1 [Compound 229],30 µM
8,O=C(NCc1ccccc1-c1ccccc1)c1cc(Cl)ccc1O [Compound 237],30 µM
9,O=C(NCc1cccc(-c2ccccc2)c1)c1cc(Cl)ccc1O [Compound 238],30 µM
10,O=C(Nc1ccccc1C(=O)NCc1ccccc1)c1cc(Cl)ccc1O [Compound 255],30 µM
11,O=C(Nc1cc(C(F)(F)F)ccc1OCC(F)(F)F)c1cc(Cl)ccc1O [Compound 278],2 µM
12,O=C(NCc1ccc(Cl)c(C(F)(F)F)c1)c1cc(Cl)ccc1O [Compound 290],30 µM
13,Cc1ccc(CNC(=O)c2cc(Cl)ccc2O)cc1-c1ccccc1 [Compound 291],30 µM
14,O=C(NCc1ccc(Cl)c(-c2ccccc2)c1)c1cc(Cl)ccc1O [Compound 292],30 µM
15,O=C(NCc1cc(-c2ccccc2)ccc1Cl)c1cc(Cl)ccc1O [Compound 293],30 µM
